Results from patent US20250041380A1, “R[…] FOR SARS-COV2 DISEASE” (priority 2021, published 2025).
Like-named read-outs stand apart in the source and are kept apart here.

Columns and labels:
Colon cells (HT-29) = test: cells; assay type: cell-based; conditions: Homo sapiens, HT-29, Spike S1 Protein (1 μg/ml)
Bone cells (MG-63) = test: cells; assay type: cell-based; conditions: Spike S1 Protein (10 μg/ml); for inhibition at 0.1 µM / inhibition at 1 µM / inhibition at 10 µM / inhibition at 20 µM: Homo sapiens, MG-63
[1] = tested on: pancreatic cells (PANC-1); test: cells; assay type: cell-based; conditions: Spike S1 Protein (20 μg/ml)+
in vitro = assay type: cell-based, Human; conditions: human, 1 μM
Protocol: (§1) A549 cells were plated in DMEM+10% FBS at a density of 10,000 cells/well in 96-well culture plates and incubated at 37° C. for 24 h. THP-1 cells were plated in RPMI+10% FBS at a density of 10,000 cells/well in 96-well culture plates and incubated at 37° C. for 24 h. Cells were sera-starved for 24 h. […] Untreated cells were used as control. Cells treated with dexamethasone and hydroxychloroquine were included as positive control. After treatment, cells were incubated in a 5% CO2 incubator for 48 h.

Immune (THP-1) cells = test: in vitro; assay type: cell-based, Human; conditions: 48 h
Protocol: as §1

liver cells (HepG2) = test: cells; assay type: cell-based; conditions: Spike S1 Protein (20 μg/ml)
Cardiac cells (H9C2) = test: cells; assay type: cell-based; conditions: Spike S1 Protein (5 μg/ml); for inhibition at 0.1 µM / inhibition at 1 µM / inhibition at 10 µM / inhibition at 20 µM: Rattus norvegicus, H9c2
[2] = read-out: % Inhibition (wrt Control), IL-6
[3] = read-out: % Inhibition (wrt Control), IL-8

CCN(CCO)CCCC(C)Nc1ccnc2cc(Cl)ccc12 (centres unmarked) [Hydroxychloroquine sulphate]
inhibition at 0.1 µM (Colon cells (HT-29); [2]): 51.3%
inhibition at 0.1 µM (Colon cells (HT-29); [3]): 92.7%
inhibition at 1 µM (Colon cells (HT-29); [2]): 61.4%
inhibition at 1 µM (Colon cells (HT-29); [3]): 86.2%
inhibition at 10 µM (Colon cells (HT-29); [2]): 46.9%
inhibition at 10 µM (Colon cells (HT-29); [3]): 85.2%
inhibition at 20 µM (Colon cells (HT-29); [2]): 55.8%
inhibition at 20 µM (Colon cells (HT-29); [3]): 94.4%
Con. of IL-8 (Bone cells (MG-63); 0.1 μM): 703.3 pg/mL
Conc. of IL-6 (Bone cells (MG-63); 0.1 μM): 136.5 pg/mL
Con. of IL-8 (Bone cells (MG-63); 1 μM): 660.0 pg/mL
Conc. of IL-6 (Bone cells (MG-63); 1 μM): 171.8 pg/mL
Con. of IL-8 (Bone cells (MG-63); 10 μM): 774.4 pg/mL
Conc. of IL-6 (Bone cells (MG-63); 10 μM): 233.8 pg/mL
Con. of IL-8 (Bone cells (MG-63); 20 μM): 1388.3 pg/mL
Conc. of IL-6 (Bone cells (MG-63); 20 μM): 354.0 pg/mL
inhibition at 0.1 µM (Bone cells (MG-63); 0.1 μM, read-out: % Inhibition (wrt Control), IL-6): 14.7%
inhibition at 0.1 µM (Bone cells (MG-63); 0.1 μM, read-out: % Inhibition (wrt Control), IL-8): 0.6%
inhibition at 1 µM (Bone cells (MG-63); 1 μM, read-out: % Inhibition (wrt Control), IL-6): -7.4%
inhibition at 1 µM (Bone cells (MG-63); 1 μM, read-out: % Inhibition (wrt Control), IL-8): 6.8%
inhibition at 10 µM (Bone cells (MG-63); 10 μM, read-out: % Inhibition (wrt Control), IL-6): -46.1%
inhibition at 10 µM (Bone cells (MG-63); 10 μM, read-out: % Inhibition (wrt Control), IL-8): -9.4%
inhibition at 20 µM (Bone cells (MG-63); 20 μM, read-out: % Inhibition (wrt Control), IL-6): -121%
inhibition at 20 µM (Bone cells (MG-63); 20 μM, read-out: % Inhibition (wrt Control), IL-8): -96.2%
Conc. of IL-8 ([1]; 0.1 μM): 214 pg/mL
Conc. of IL-8 ([1]; 1 μM): 169.9 pg/mL
Conc. of IL-8 ([1]; 10 μM): 200.5 pg/mL
Conc. of IL-8 ([1]; 20 μM): 203 pg/mL
inhibition at 0.1 µM ([1]; Homo sapiens, PANC-1, 0.1 μM, read-out: % Inhibition (wrt Control ), IL-8): 71.3%
inhibition at 1 µM ([1]; Homo sapiens, PANC-1, 1 μM, read-out: % Inhibition (wrt Control ), IL-8): 77.2%
inhibition at 10 µM ([1]; Homo sapiens, PANC-1, 10 μM, read-out: % Inhibition (wrt Control ), IL-8): 73.1%
inhibition at 20 µM ([1]; Homo sapiens, PANC-1, 20 μM, read-out: % Inhibition (wrt Control ), IL-8): 72.8%
cytotoxicity at 48 h, 1 µM (in vitro): -5.2%
% Viability (Immune (THP-1) cells; 0.1 μM): 113.4%
% Viability (Immune (THP-1) cells; 1 μM): 105.2%
% Viability (Immune (THP-1) cells; 5 μM): 95.8%
% Viability (Immune (THP-1) cells; 10 μM): 104.8%
% Viability (Immune (THP-1) cells; 20 μM): 89.3%
Conc. of IL-8 (liver cells (HepG2); 0.1 μM): 117.1 pg/mL
Conc. of IL-8 (liver cells (HepG2); 1 μM): 193.2 pg/mL
Conc. of IL-8 (liver cells (HepG2); 10 μM): 162.5 pg/mL
Conc. of IL-8 (liver cells (HepG2); 20 μM): 103.6 pg/mL
inhibition at 0.1 µM (liver cells (HepG2); Homo sapiens, HepG2, 0.1 μM, read-out: % Inhibition (wrt Control ), IL-8): 76.5%
inhibition at 1 µM (liver cells (HepG2); Homo sapiens, HepG2, 1 μM, read-out: % Inhibition (wrt Control ), IL-8): 61.3%
inhibition at 10 µM (liver cells (HepG2); Homo sapiens, HepG2, 10 μM, read-out: % Inhibition (wrt Control ), IL-8): 67.4%
inhibition at 20 µM (liver cells (HepG2); Homo sapiens, HepG2, 20 μM, read-out: % Inhibition (wrt Control ), IL-8): 79.2%
Con. of IL-8 (Cardiac cells (H9C2); 0.1 μM): 952.1
Conc. of IL-6 (Cardiac cells (H9C2); 0.1 μM): 420.1
Con. of IL-8 (Cardiac cells (H9C2); 1 μM): 768.5
Conc. of IL-6 (Cardiac cells (H9C2); 1 μM): 313.4
Con. of IL-8 (Cardiac cells (H9C2); 10 μM): 231.8
Conc. of IL-6 (Cardiac cells (H9C2); 10 μM): 125.2
Con. of IL-8 (Cardiac cells (H9C2); 20 μM): 45.5
Conc. of IL-6 (Cardiac cells (H9C2); 20 μM): 61.8
inhibition at 0.1 µM (Cardiac cells (H9C2); 0.1 μM, read-out: % Inhibition (IL-6)): 16.9%
inhibition at 0.1 µM (Cardiac cells (H9C2); 0.1 μM, read-out: % Inhibition (IL-8)): 33.5%
inhibition at 1 µM (Cardiac cells (H9C2); 1 μM, read-out: % Inhibition (IL-6)): 38%
inhibition at 1 µM (Cardiac cells (H9C2); 1 μM, read-out: % Inhibition (IL-8)): 46.3%
inhibition at 10 µM (Cardiac cells (H9C2); 10 μM, read-out: % Inhibition (IL-6)): 75.2%
inhibition at 10 µM (Cardiac cells (H9C2); 10 μM, read-out: % Inhibition (IL-8)): 83.8%
inhibition at 20 µM (Cardiac cells (H9C2); 20 μM, read-out: % Inhibition (IL-6)): 87.8%
inhibition at 20 µM (Cardiac cells (H9C2); 20 μM, read-out: % Inhibition (IL-8)): 96.8%
